Results on 31 compounds are retold here after US20240174603A1 (Rappta Therapeutics Oy, priority 2021, published 2024).

For orientation: GI50 means the concentration giving 50% growth inhibition. Low readings indicate more potent growth inhibition, high ones less potent growth inhibition.

The structures appear in SMILES notation.

In the assay the test system is LNCaP cells. As to the kind of experiment: LNCaP cell viability assay (MTS). It counts as cell-based. Conditions: Homo sapiens, LNCaP, 48 h, LNCaP cell line. On the procedure:
LNCaP cell line was used for the cell viability assay. LNCaP cells were plated in 96-well plates at a density of 5000 cells per well. After 24 hours of plating, the cells were treated with increasing doses of compound (e.g., compounds 1-269) ranging from 1 μM to 80 μM. Relative cell numbers were analyzed after 48 hours using 3-(4,5-dimethylthiazol-2-yl)-5-(3-carboxymethoxyphenyl)-2-(4-sulfophenyl)-2H-tetrazolium (MTS) assay (Promega) according to the manufacturer's instructions.
The cell viability data was analyzed with GraphPad Prism software. The values were log transformed and analyzed with non-linear regression (curve-fit) using log(inhibitor) vs. response-variable slope (four parameters) and constraining the bottom to equal zero. Unless otherwise indicated, the GI50 values provided in Table 113 correspond to the LNCaP cell viability assays.
On to `O=S(=O)(NCc1ccccc1S(=O)(=O)N1CCCCC1)c1ccc(OC(F)(F)F)cc1` [Compound 2, N-(2-(piperidin-1-ylsulfonyl)benzyl)-4-(trifluoromethoxy)benzenesulfonamide], for which the GI50 turned out to be 58.3 µM. That is a double-digit micromolar value.

As for `O=S(=O)(NCCNS(=O)(=O)c1cc(Br)ccc1Br)c1ccc(OC(F)(F)F)cc1` [Compound 3, 2,5-dibromo-N-(2-((4-(trifluoromethoxy)phenyl)sulfonamido)ethyl)benzenesulfonamide], growth was halved (GI50) at 24.6 µM. In the case of `CCCC(NS(=O)(=O)c1ccc(OC(F)(F)F)cc1)C(=O)N(C)C1CCCCCC1` (stereo not shown) [Compound 4, N-cycloheptyl-N-methyl-2-((4-(trifluoromethoxy)phenyl)sulfonamido)pentanamide], the GI50 is 54 µM. Against the preceding compound, the GI50 is about 2.2-fold higher. With `CCCCC(NS(=O)(=O)c1ccc(OC(F)(F)F)cc1)C(=O)OC(C)(C)C` (stereo not shown) [Compound 5, Tert-butyl 2-((4-(trifluoromethoxy)phenyl)sulfonamido)hexanoate], growth was halved (GI50) at 39.5 µM.

`COC(=O)C[C@@H](Cc1ccccc1)NS(=O)(=O)c1ccc(OC(F)(F)F)cc1` [Compound 6, Methyl (R)-4-phenyl-3-((4-(trifluoromethoxy)phenyl)sulfonamido)butanoate]: growth was halved (GI50) at 61.1 µM. This GI50 is about 1.5-fold higher than that of the compound before. For `CC[C@H](C)[C@H](NS(=O)(=O)c1ccc(OC(F)(F)F)cc1)C(=O)OC(C)(C)C` [Compound 7, Tert-butyl ((4-(trifluoromethoxy)phenyl)sulfonyl)-L-isoleucinate], the concentration for 50% growth inhibition (GI50) was determined as 57.9 µM. For `O=S(=O)(NC(CC(F)(F)F)c1ccccc1)c1ccc(OC(F)(F)F)cc1` (stereo not shown) [Compound 8, N-(3,3,3-trifluoro-1-phenylpropyl)-4-(trifluoromethoxy)benzenesulfonamide] the value was 38.1 µM; for `Cc1cccc(CC(CO)NS(=O)(=O)c2ccc(OC(F)(F)F)cc2)c1` (stereo not shown) [Compound 9, N-(1-hydroxy-3-(m-tolyl)propan-2-yl)-4-(trifluoromethoxy)benzenesulfonamide], 24.1 µM; for `CC(C)CC(CCO)NS(=O)(=O)c1ccc(OC(F)(F)F)cc1` (stereo not shown) [Compound 10, N-(1-hydroxy-5-methylhexan-3-yl)-4-(trifluoromethoxy)benzenesulfonamide], 5.47 µM. For `CC(O)COc1ccccc1CNS(=O)(=O)c1ccc(OC(F)(F)F)cc1` (stereo not shown) [Compound 11, N-(2-(2-hydroxypropoxy)benzyl)-4-(trifluoromethoxy)benzenesulfonamide] the value was 30.9 µM; for `O=S(=O)(N[C@@H](CCO)c1ccccc1)c1ccc(OC(F)(F)F)cc1` [Compound 12, (S)—N-(3-hydroxy-1-phenylpropyl)-4-(trifluoromethoxy)benzenesulfonamide], 34.7 µM. For `CCOC(=O)C(CC1CC=CCC1)NS(=O)(=O)c1ccc(OC(F)(F)F)cc1` (stereo not shown) [Compound 13, Ethyl 3-(cyclohex-3-en-1-yl)-2-((4-(trifluoromethoxy)phenyl)sulfonamido)propanoate] the value was 53.5 µM; for `CCOC(=O)C[C@@H](NS(=O)(=O)c1ccc(OC(F)(F)F)cc1)c1ccccc1Cl` [Compound 14, Ethyl (R)-3-(2-chlorophenyl)-3-((4-(trifluoromethoxy)phenyl)sulfonamido)propanoate], 51.9 µM; for `CCOC(=O)C(Cc1cccc(Cl)c1)NS(=O)(=O)c1ccc(OC(F)(F)F)cc1` (stereo not shown) [Compound 15, Ethyl 3-(3-chlorophenyl)-2-((4-(trifluoromethoxy)phenyl)sulfonamido)propanoate], 49.6 µM.

The compound `CCOC(=O)C(NS(=O)(=O)c1ccc(OC(F)(F)F)cc1)c1ccc(OC)c(Br)c1` (stereo not shown) [Compound 16, Ethyl 2-(3-bromo-4-methoxyphenyl)-2-((4-(trifluoromethoxy)phenyl)sulfonamido)acetate] yielded a GI50 of 49.7 µM. Consider `CCc1ccc(C(NS(=O)(=O)c2ccc(OC(F)(F)F)cc2)C(C)(C)C)o1` (stereo not shown) [Compound 17, N-(1-(5-ethylfuran-2-yl)-2,2-dimethylpropyl)-4-(trifluoromethoxy)benzenesulfonamide], for which the GI50 worked out at 55.6 µM. The GI50 values of the last two compounds are within 1.5-fold of each other. Compound `COc1ccc(C)cc1CC(NS(=O)(=O)c1ccc(OC(F)(F)F)cc1)C(C)C` (stereo not shown) [Compound 18, N-(1-(2-methoxy-5-methylphenyl)-3-methylbutan-2-yl)-4-(trifluoromethoxy)benzenesulfonamide] displayed a GI50 of 76.7 µM. The GI50 values of the last two compounds are within 1.5-fold of each other. For the compound `O=S(=O)(NC(CC1CC1)c1ccccc1)c1ccc(OC(F)(F)F)cc1` (stereo not shown) [Compound 19, N-(2-cyclopropyl-1-phenylethyl)-4-(trifluoromethoxy)benzenesulfonamide], it took 51.9 µM to inhibit growth by half (GI50). `COC(c1ccccc1Cl)C(C)NS(=O)(=O)c1ccc(OC(F)(F)F)cc1` (stereo not shown) [Compound 20, N-(1-(2-chlorophenyl)-1-methoxypropan-2-yl)-4-(trifluoromethoxy)benzenesulfonamide] had a GI50 of 50.9 µM.

Compound `CC(NS(=O)(=O)c1ccc(OC(F)(F)F)cc1)c1cc(F)ccc1N1CCC(O)CC1` (stereo not shown) [Compound 21, N-(1-(5-fluoro-2-(4-hydroxypiperidin-1-yl)phenyl)ethyl)-4-(trifluoromethoxy)benzenesulfonamide] gave a GI50 of 46.8 µM. The GI50 values of the last two compounds are within 1.5-fold of each other. Turning to `COC(=O)CC(NS(=O)(=O)c1ccc(OC(F)(F)F)cc1)c1ccc(OC)c(Br)c1` (stereo not shown) [Compound 22], the GI50 amounted to 39.1 µM. Under `COC(=O)C(C)C(NS(=O)(=O)c1ccc(OC(F)(F)F)cc1)c1ccccc1` (stereo not shown) [Compound 23] stands 43.1 µM.

Consider `CCOC(=O)CC(NS(=O)(=O)c1ccc(OC(F)(F)F)cc1)c1ccc(C)cc1` (stereo not shown) [Compound 24], for which the GI50 worked out at 44.2 µM. Under `CCOC(=O)CC(NS(=O)(=O)c1ccc(OC(F)(F)F)cc1)c1ccc(OCC)cc1` (stereo not shown) [Compound 25] stands 75.6 µM; under `CC(C)CC(NS(=O)(=O)c1ccc(OC(F)(F)F)cc1)c1cccc(C#N)c1` (stereo not shown) [Compound 26, N-(1-(3-cyanophenyl)-3-methylbutyl)-4-(trifluoromethoxy)benzenesulfonamide], 28.9 µM.

Turning to `COc1ccc(OC)c(CCCNS(=O)(=O)c2ccc(OC(F)(F)F)cc2)c1` [Compound 27, N-(3-(2,5-dimethoxyphenyl)propyl)-4-(trifluoromethoxy)benzenesulfonamide], the GI50 amounted to 40.2 µM. This GI50 and that of the compound before are within 1.5-fold of each other. Under `CCc1ccc(C(CNS(=O)(=O)c2ccc(OC(F)(F)F)cc2)N2CCCC2)cc1` (stereo not shown) [Compound 28, N-(2-(4-ethylphenyl)-2-(pyrrolidine-1-yl)ethyl)-4-(trifluoromethoxy)benzenesulfonamide] stands 55.8 µM. `CCOc1ccc(Cl)cc1CCNS(=O)(=O)c1ccc(OC(F)(F)F)cc1` [Compound 29, N-(5-chloro-2-ethoxyphenethyl)-4-(trifluoromethoxy)benzenesulfonamide] came in with a concentration for 50% growth inhibition (GI50) of 38.3 µM. Regarding `O=S(=O)(NCc1ccccc1N1CCCC1)c1ccc(OC(F)(F)F)cc1` [Compound 30, N-(2-(pyrrolidin-1-yl)benzyl)-4-(trifluoromethoxy)benzenesulfonamide], halving of growth (GI50) required 49.7 µM. The GI50 values of the last two compounds are within 1.5-fold of each other.

In turn, `CC1CCN(C(CNS(=O)(=O)c2ccc(OC(F)(F)F)cc2)c2ccco2)CC1` (stereo not shown) [Compound 31, N-(2-(furan-2-yl)-2-(4-methylpiperidin-1-yl)ethyl)-4-(trifluoromethoxy)benzenesulfonamide] displayed a GI50 of 45.9 µM. The GI50 values of the last two compounds are within 1.5-fold of each other. Under `COc1cc(C2(CNS(=O)(=O)c3ccc(OC(F)(F)F)cc3)CCCC2)ccc1OC(F)F` [Compound 33, N-((1-(4-(difluoromethoxy)-3-methoxyphenyl)cyclopentyl)methyl)-4-(trifluoromethoxy)benzenesulfonamide] stands 73.4 µM.
